In US20210007356A1, “IMIDE DERIVATIVE AND FUNGICIDE CONTAINING SAID DERIVATIVE AS ACTIVE INGREDIENT” (HOKKO CHEMICAL INDUSTRY CO., LTD., priority 2018, published 2021):
Where two headings read alike, the source gives them in different places.

Columns and labels:
[1] = system: barley powdery mildew fungus (Erysiphe graminis); assay: Test Example 2: control effect against barley powdery mildew by foliage application; format: in vivo; conditions: wettable powder diluted to 100 ppm, 10 mL per pot foliage spray on barley; inoculated day after; 7 days after inoculation
[2] = system: rice sheath blight fungus (Thanatephorus cucumeris); assay: Test Example 8: control effect against rice sheath blight by box treatment (granule); conditions: 5 g of granule on nursery box, paddy rice; inoculated after 3 weeks; 7 days after inoculation
Text: (§1) Control value (%)=[1−(lesion height in sprayed plot/lesion height in unsprayed plot)]×100 (d)
From the top of a nursery box, 5 g of a granule prepared according to Formulation Example-4 was applied to a 2.5-leaf-stage paddy rice (variety: Asahi) seedling raised using a nursery box ( 1/10 the area of standard nursery box in size: 12 cm×15 cm×height 4 cm) within a greenhouse. The formulation-treated paddy rice seedling was immediately transplanted at 5 seedlings/pot into a pot ( 1/10000 are in size) filled with paddy soil (flooded). After growing for 3 weeks within a greenhouse, a culture of rice sheath blight fungus (Thanatephorus cucumeris) grown in advance on a rice straw medium was inoculated into the root of the formulation-treated paddy rice, and disease development was promoted in an artificial weather chamber at 26° C. (relative humidity=100%). Seven days after the inoculation, the rice sheath blight lesion height (height from the root) was examined, and the control value (%) was calculated according to formula (d). […] This test was performed with three replications, each consisting of one plot and one pot, per one formulation plot, and its average evaluation value of control effect was determined.

[3] = system: rice sheath blight fungus (Thanatephorus cucumeris); assay: Test Example 6: control effect against rice sheath blight by box treatment (flowable formulation); conditions: flowable 5,000 ppm, 50 mL irrigation of nursery box, paddy rice; inoculated after 3 weeks; 7 days after inoculation
[4] = system: rice sheath blight fungus (Thanatephorus cucumeris); assay: Test Example 10: control effect against rice sheath blight by water surface application (flowable formulation); conditions: flowable 1,000 ppm, 1 mL dripped in paddy water, inoculated after 1 week, 7 days after inoculation
Experimental: as §1
By dripping treatment in paddy water, 1 mL of a diluted solution (1,000 ppm) of a flowable prepared according to Formulation Example-3 was applied to a 5-leaf-stage paddy rice (variety: Asahi) seedling (5 seedlings/stub, one stub/pot) grown in a pot ( 1/10000 are in size) filled with paddy soil (flooded) within a greenhouse. After growing for 1 week within a greenhouse, a culture of rice sheath blight fungus (Thanatephorus cucumeris) grown in advance on a rice straw medium was inoculated into the root of the formulation-treated paddy rice, and disease development was promoted in an artificial weather chamber at 26° C. (relative humidity=100%). Seven days after the inoculation, the rice sheath blight lesion height (height from the root) was examined, and the control value (%) was calculated according to formula (d). […] This test was performed with three replications, each consisting of one plot and one pot, per one formulation plot, and its average evaluation value of control effect was determined.

[5] = system: rice blast fungus (Pyricularia grisea); format: in vivo; conditions: flowable 5,000 ppm, 50 mL irrigation of nursery box, paddy rice; inoculated after 3 weeks; 7 days after inoculation
[6] = system: rice blast fungus (Pyricularia grisea); format: in vivo; conditions: 5 g of granule on nursery box, paddy rice; inoculated after 3 weeks; 7 days after inoculation
[7] = system: rice blast fungus (Pyricularia grisea); format: in vivo; conditions: flowable 1,000 ppm, 1 mL dripped in paddy water, inoculated after 1 week, 7 days after inoculation

| Structure (SMILES) | evaluation value of control effect (from control value, lesion area percentage) [1] | evaluation value of control effect (from control value, lesion height) [2] | evaluation value of control effect (from control value, lesion height) [3] | evaluation value of control effect (from control value, lesion height) [4] | evaluation value of control effect (from control value, number of lesions) [5] | evaluation value of control effect (from control value, number of lesions) [6] | evaluation value of control effect (from control value, number of lesions) [7] |
| --- | --- | --- | --- | --- | --- | --- | --- |
| Cn1cc(C(=O)N(C(=O)c2snc(Cl)c2Cl)c2ccccc2-c2ccccc2)c(C(F)F)n1 [1-61] | 4 | – | – | – | – | – | – |
| Cn1cc(C(=O)N(C(=O)c2snc(Cl)c2Cl)c2ccccc2-c2cc(F)c(F)c(F)c2)c(C(F)F)n1 [1-65] | 5 | 5 | 5 | 5 | – | – | – |
| CCC(C)Oc1cccc(N(C(=O)c2cn(C)nc2C(F)F)C(=O)c2snc(Cl)c2Cl)c1C (stereo not drawn) [1-122] | – | 5 | 5 | 5 | – | – | – |
| Cc1nsc(C(=O)N(C(=O)c2cn(C)nc2C(F)F)c2ccccc2C(C)CC(C)C)c1Cl (stereo not drawn) [1-140] | 5 | 5 | 5 | 5 | – | – | – |
| Cc1nnsc1C(=O)N(C(=O)c1c(C)nn(C)c1F)c1ccccc1C(C)CC(C)C (stereo not drawn) [1-158] | 4 | – | – | – | 5 | 5 | 5 |
| Cc1nn(C)c(F)c1C(=O)N(C(=O)c1cc(Cl)nc(Cl)c1)c1ccccc1C(C)CC(C)C (stereo not drawn) [1-266] | 4 | – | – | – | – | – | – |
| Cc1nn(C)c(F)c1C(=O)N(C(=O)c1cccc2nnsc12)c1ccccc1C(C)CC(C)C (stereo not drawn) [1-279] | – | 5 | 5 | 5 | – | – | – |
| CCc1nc(C(F)F)c(C(=O)N(C(=O)c2c(C)nn(C)c2F)c2ccccc2C(C)CC(C)C)s1 (stereo not drawn) [1-292] | – | 5 | 5 | 5 | – | – | – |
| Cc1nc(C(F)(F)F)c(C(=O)N(C(=O)c2cn(C)nc2C(F)F)c2ccccc2C(C)CC(C)C)s1 (stereo not drawn) [1-300] | 5 | 5 | 5 | 5 | – | – | – |
| Cc1nc(C(F)(F)F)c(C(=O)N(C(=O)c2c(C)nn(C)c2F)c2ccccc2C(C)CC(C)C)s1 (stereo not drawn) [1-307] | 4 | – | – | – | – | – | – |
| Cc1nc(C(F)F)c(C(=O)N(C(=O)c2c(C)nn(C)c2F)c2ccccc2C(C)CC(C)C)s1 (stereo not drawn) [1-325] | 4 | – | – | – | – | – | – |
| CC(C)CC(C)c1ccccc1N(C(=O)c1cccnc1C(F)F)C(=O)c1cn(C)nc1C(F)F (stereo not drawn) [1-349] | 4 | – | – | – | – | – | – |
| CC(C)CC(C)c1ccccc1N(C(=O)c1cn(C)nc1C(F)F)C(=O)c1c(C(F)F)nn(C)c1Cl (stereo not drawn) [1-354] | 5 | 5 | 5 | 5 | – | – | – |
| Cn1cc(C(=O)N(C(=O)c2cccc3nnsc23)c2ccccc2-c2cc(F)c(F)c(F)c2)c(C(F)F)n1 [1-369] | 4 | 5 | 5 | 5 | – | – | – |
| Cc1nc(C(F)F)c(C(=O)N(C(=O)c2cn(C)nc2C(F)F)c2ccccc2-c2cc(F)c(F)c(F)c2)s1 [1-372] | 4 | 5 | 5 | 5 | – | – | – |
| Cn1cc(C(=O)N(C(=O)c2cc(Cl)c(Cl)s2)c2ccccc2-c2cc(F)c(F)c(F)c2)c(C(F)F)n1 [1-373] | 4 | 5 | 5 | 5 | – | – | – |
| Cc1nc(C(F)F)c(C(=O)N(C(=O)c2snc(Cl)c2Cl)c2ccccc2-c2cc(F)c(F)c(F)c2)s1 [7-68] | 4 | – | – | – | – | – | – |
| Cc1nc(C(F)F)c(C(=O)N(C(=O)c2snc(Cl)c2Cl)c2c(Br)cc(OC(F)(F)F)cc2Br)s1 [7-129] | 4 | – | – | – | – | – | – |

| Structure (SMILES) | evaluation value of control effect (from control value, lesion area percentage) [1] | evaluation value of control effect (from control value, lesion height) [2] | evaluation value of control effect (from control value, lesion height) [3] | evaluation value of control effect (from control value, lesion height) [4] | evaluation value of control effect (from control value, number of lesions) [5] | evaluation value of control effect (from control value, number of lesions) [6] | evaluation value of control effect (from control value, number of lesions) [7] |
| --- | --- | --- | --- | --- | --- | --- | --- |
| Cc1nc(C(F)(F)F)c(C(=O)N(C(=O)c2scnc2C(F)(F)F)c2c(Br)cc(OC(F)(F)F)cc2Br)s1 [7-284] | – | 5 | 5 | 5 | – | – | – |
| Cc1nc(C(F)F)c(C(=O)N(C(=O)c2snnc2C)c2ccsc2C(C)CC(C)C)s1 (stereo not drawn) [11-20] | 5 | – | – | – | – | – | – |
| Cc1nc(C(F)F)c(C(=O)N(C(=O)c2cccnc2C(F)F)c2ccccc2C(C)CC(C)C)s1 (stereo not drawn) [13-20] | 4 | – | – | – | 5 | – | – |
| Cc1nnsc1C(=O)N(C(=O)c1cn(C)nc1C(F)F)c1cccc2c1C(C)CC2(C)C (stereo not drawn) [25-47] | 4 | 5 | 5 | 5 | – | – | – |
| CCc1nc(C(F)F)c(C(=O)N(C(=O)c2cn(C)nc2C(F)F)c2cccc3c2C(C)CC3(C)C)s1 (stereo not drawn) [25-85] | 4 | 5 | 5 | 5 | – | – | – |
| Cc1nc(C(F)(F)F)c(C(=O)N(C(=O)c2cn(C)nc2C(F)F)c2cccc3c2C(C)OC3(C)C)s1 (stereo not drawn) [25-92] | 4 | 5 | 5 | 5 | – | – | – |
| CC1CC(C)(C)c2cccc(N(C(=O)c3cn(C)nc3C(F)F)C(=O)c3scnc3C(F)(F)F)c21 (stereo not drawn) [25-103] | 4 | – | – | – | – | – | – |
| CC1CC(C)(C)c2cccc(N(C(=O)c3cn(C)nc3C(F)F)C(=O)c3onc(Cl)c3Cl)c21 (stereo not drawn) [25-113] | 4 | 5 | 5 | 5 | – | – | – |
| Cc1nnsc1C(=O)N(C(=O)c1c(C)nn(C)c1Cl)c1cccc2c1C(C)OC2(C)C (stereo not drawn) [25-116] | 4 | 5 | 5 | 5 | – | – | – |
| Cc1nn(C)c(Cl)c1C(=O)N(C(=O)c1cccc2nnsc12)c1cccc2c1C(C)OC2(C)C (stereo not drawn) [25-118] | – | – | – | – | 5 | 5 | 5 |
| Cc1nn(C)c(Cl)c1C(=O)N(C(=O)c1onc(Cl)c1Cl)c1cccc2c1C(C)OC2(C)C (stereo not drawn) [25-124] | 4 | 5 | 5 | 5 | – | – | – |
| Cc1nn(C)c(Cl)c1C(=O)N(C(=O)c1cc(Cl)nc(Cl)c1)c1cccc2c1C(C)OC2(C)C (stereo not drawn) [25-125] | 4 | – | – | – | – | – | – |
| Cc1nc(C(F)F)c(C(=O)N(C(=O)c2snc(Cl)c2Cl)c2cccc3c2C(C)CC3(C)C)s1 (stereo not drawn) [26-8] | 5 | 5 | 5 | 5 | – | – | – |
| Cc1nc(C(F)F)c(C(=O)N(C(=O)c2sc(C)nc2C(F)F)c2cccc3c2C(C)CC3(C)C)s1 (stereo not drawn) [26-77] | 4 | 5 | 5 | 5 | – | – | – |
| Cc1nc(C(F)F)c(C(=O)N(C(=O)c2cc(Cl)c(Cl)s2)c2cccc3c2C(C)CC3(C)C)s1 (stereo not drawn) [26-87] | – | – | – | – | 5 | 5 | 5 |
| Cc1nc(C(F)F)c(C(=O)N(C(=O)c2cc(Cl)no2)c2cccc3c2C(C)CC3(C)C)s1 (stereo not drawn) [26-88] | 4 | 5 | 5 | 5 | – | – | – |
| CC1CC(C)(C)c2cccc(N(C(=O)c3cccnc3C(F)F)C(=O)c3snc(Cl)c3Cl)c21 (stereo not drawn) [27-3] | 5 | 5 | 5 | 5 | – | – | – |
